In ChEMBL document CHEMBL3507680, “University of Dundee, Gates Library screen for HepG2 cell viability”:

Assay: Human HepG2 cell viability assay in 384 well format
Format: toxicity, cell-based
Set-up: dose 125 nL, time 70.5 hour; concentration not given beside the values
Conditions: HepG2 cells, read-out: Inhibition
`O=C(CN1CCN(c2ccc3nncn3n2)CC1)NC1CCCCC1` gave a cytotoxicity at 70.5 h of -11.1%.
Work on `CCOc1ccc(S(=O)(=O)NCCCc2ccc(N(C)C)cc2)cc1C` yielded a cytotoxicity at 70.5 h of -1.63%.
With `NC(=O)c1csc(C(=O)N2CCCCC2Cn2cccn2)c1` (stereo unspecified) the cytotoxicity at 70.5 h was -10.3%.
Compound `CC1CN(CC(=O)NCCc2ccncc2)Cc2ccccc2O1` (stereo unspecified) has a cytotoxicity at 70.5 h of -7.7%.
For `Cc1nn(C)c(Cl)c1C1CCCN1CC(=O)Nc1cccnc1` (stereo unspecified), the cytotoxicity at 70.5 h was -6.29%.
`CCc1oc(C(=O)NCCc2nc(C(=O)O)cs2)cc1CN1CCCC1` showed a cytotoxicity at 70.5 h of -3.56%.
Work on `NC1CCN(c2nccn3c(=O)[nH]nc23)CC1` yielded a cytotoxicity at 70.5 h of 22.8%.
In the case of `COc1cccc2c3c(c(=O)[nH]c12)CCC(C)(C)O3`, the cytotoxicity at 70.5 h is reported as -5.31%.
For `CCNC(=O)CNC(=O)c1ccn(S(=O)(=O)c2ccc(C)cc2)c1`, the cytotoxicity at 70.5 h was 1.83%.
`CCCS(=O)(=O)N1CCN(c2cc(-n3cnc(C)c3C)ncn2)CC1` gave a cytotoxicity at 70.5 h of 2.79%.
`COCCOc1ccnc(-c2noc([C@@H]3CCCN3C)n2)c1` showed a cytotoxicity at 70.5 h of -3.64%.
`CCOCC(O)CN1CCN(C(=O)c2cc(C)ccc2OC)CC1` (stereo unspecified) gave a cytotoxicity at 70.5 h of -5.99%.
With `CC(CN1CCOCC1)OC(=O)c1ccccc1I` (stereo unspecified) the cytotoxicity at 70.5 h was -15.6%.
In the case of `COc1cc(CNCCc2nc(C)cs2)cc2c1OCCO2`, the cytotoxicity at 70.5 h is reported as -0.752%.
Work on `Cc1nn(CC(C)C)c(N(C)C)c1CNCc1cccc2c1OCO2` yielded a cytotoxicity at 70.5 h of 10.6%.
Work on `Cc1cnn(CC2CN(Cc3nc(-c4ccccn4)no3)CCO2)c1` (stereo unspecified) yielded a cytotoxicity at 70.5 h of 2.23%.
`COCCn1c(C(=O)NC(C(N)=O)C(C)C)cc2ccccc21` (stereo unspecified) showed a cytotoxicity at 70.5 h of -6.02%.
In the case of `CCN(CC)Cc1ccc(C(=O)NC2CCc3ccccc32)o1` (stereo unspecified), the cytotoxicity at 70.5 h is reported as 21.6%.
`CCCNC(=O)CN1CCC(NCc2c(C)nn(C)c2OC)CC1` gave a cytotoxicity at 70.5 h of -0.725%.
`O=C(Nc1ccc(Cl)cn1)C1CCCN(Cc2ccccn2)C1` (stereo unspecified) gave a cytotoxicity at 70.5 h of -1.12%.
`COc1cc(C(=O)NCCc2cccc(C)c2)on1` gave a cytotoxicity at 70.5 h of 2.66%.
`CCOCC(O)CN1CCN(C(=O)C2CCCCC2)CC1` (stereo unspecified) gave a cytotoxicity at 70.5 h of -0.878%.
Work on `Cc1ncsc1CCC(=O)NC1CCN(c2ncccc2C#N)CC1` yielded a cytotoxicity at 70.5 h of -13.1%.
Work on `CCN(Cc1cnc(NCc2ccccc2)nc1)C1CCS(=O)(=O)C1` (stereo unspecified) yielded a cytotoxicity at 70.5 h of -7.52%.
`c1cc(-c2noc([C@@H]3CCCN3CC3CC3)n2)cc(N2CCCC2)n1` showed a cytotoxicity at 70.5 h of -11.8%.
With `O=C(Nc1cc(C(F)(F)F)c[nH]c1=O)C1CCNCC1` the cytotoxicity at 70.5 h was -12.8%.
`CCN(CC)S(=O)(=O)N1CCCC1CC(=O)c1cccs1` (stereo unspecified) showed a cytotoxicity at 70.5 h of -4.6%.
For `COC(=O)NCC(=O)NCC1(c2c(F)cccc2F)CCCC1`, the cytotoxicity at 70.5 h was 1.47%.
Work on `CC(C)Oc1ccc(CN2CCC(Cc3nnc(CO)n3C)CC2)cc1` yielded a cytotoxicity at 70.5 h of -0.794%.
`O=C1CC(c2ccccc2)c2cnn(C3CCCC3)c2N1` (stereo unspecified) showed a cytotoxicity at 70.5 h of 18.5%.
Work on `CCCNC(=O)c1cn(C(C)(C)C)c2ncccc12` yielded a cytotoxicity at 70.5 h of -1.86%.
With `CC(C)(CCS(C)(=O)=O)CNC(=O)NC1CCCCC1(C)C` (stereo unspecified) the cytotoxicity at 70.5 h was 28%.
Compound `Cc1nn(C)cc1-c1ccnc(N(C)Cc2cccs2)n1` has a cytotoxicity at 70.5 h of 2.52%.
With `Cn1cccc1-c1cc(C(=O)N2CCCCC2c2ccc(F)cc2)[nH]n1` (stereo unspecified) the cytotoxicity at 70.5 h was -3.93%.
`Cc1cc(C)c(CNC(=O)N2CCCC2c2ccccc2)c(=O)[nH]1` (stereo unspecified) gave a cytotoxicity at 70.5 h of 2.02%.
`CCCn1nnnc1COc1ccc(C(=O)OC)cc1` gave a cytotoxicity at 70.5 h of -11.5%.
In the case of `CCc1csc(C2CCCN(C(=O)c3ccc(=O)n(CC)n3)C2)n1` (stereo unspecified), the cytotoxicity at 70.5 h is reported as -5.74%.
Compound `COc1ncccc1C(=O)Nc1nc2c(s1)CN(S(=O)(=O)C1CC1)CC2` has a cytotoxicity at 70.5 h of 3.95%.
In the case of `CC(C)CN1CCC2(CC1)C(=O)Nc1ccc(C(=O)N(C)C)cc12`, the cytotoxicity at 70.5 h is reported as -10.1%.
With `CC(C)(C)c1ccc2c(c1)CCN2C(=O)c1nc(=O)[nH][nH]1` the cytotoxicity at 70.5 h was 0.34%.
With `CC(C)(C)c1ncc2c(n1)CN(C(=O)c1ccncc1)C2` the cytotoxicity at 70.5 h was -9.79%.
In the case of `CC(C)CNC[C@H]1COCc2nc3cccnc3n21`, the cytotoxicity at 70.5 h is reported as 10%.
With `Cc1oc(-c2ccco2)nc1CC(=O)N1CCC(C(O)C(F)(F)F)CC1` (stereo unspecified) the cytotoxicity at 70.5 h was -18.3%.
Work on `CS(=O)(=O)CCC(=O)Nc1nccn1Cc1ccccc1Cl` yielded a cytotoxicity at 70.5 h of 0.444%.
Work on `Cc1noc2ncc(C(=O)NCC3CCN(C(C)C)C3)cc12` (stereo unspecified) yielded a cytotoxicity at 70.5 h of -4.09%.
Work on `COCc1nc(C(=O)NS(=O)(=O)c2cc(C)ccc2C)cs1` yielded a cytotoxicity at 70.5 h of 3.09%.
